Laboratory results taken from ChEMBL document CHEMBL5325418, “Studies on diketopiperazine and dipeptide analogs as opioid receptor ligands” (Eur J Med Chem, 2023).

Target: Mu-type opioid receptor (Homo sapiens, UniProt P35372)
Test: Displacement of [3H]DAMGO from human MOR expressed in CHO cell membranes assessed as inhibition constant incubated for 60 mins by microbeta 2 scintillation counting method
Design: species or system Cell membrane
Settings: not given

Sequence of Mu-type opioid receptor (P35372 whole entry): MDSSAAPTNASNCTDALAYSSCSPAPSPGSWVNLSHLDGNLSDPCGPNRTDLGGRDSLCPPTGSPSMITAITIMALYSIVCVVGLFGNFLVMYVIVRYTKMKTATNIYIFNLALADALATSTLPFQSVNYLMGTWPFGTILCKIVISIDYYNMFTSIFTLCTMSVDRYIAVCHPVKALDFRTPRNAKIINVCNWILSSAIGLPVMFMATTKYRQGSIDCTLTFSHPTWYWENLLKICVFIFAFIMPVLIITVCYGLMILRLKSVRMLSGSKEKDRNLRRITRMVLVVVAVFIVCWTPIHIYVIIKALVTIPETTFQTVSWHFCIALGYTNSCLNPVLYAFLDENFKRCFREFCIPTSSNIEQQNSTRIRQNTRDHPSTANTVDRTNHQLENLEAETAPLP

Q: With `O=C1CN(Cc2ccccc2)C(=O)C(Cc2cccc(O)c2I)N1` (stereo unspecified) as the compound, how does the Ki read?
A: Its Ki is greater than 10 µM.

Q: For `COc1cccc(CC2NC(=O)[C@H](CC(C)C)NC2=O)c1I` (stereo partly specified), which Ki is on record?
A: Its Ki is greater than 10 µM.

Q: Which Ki does the source give for `COc1cccc(CC(NC(=O)CNCc2ccccc2)C(=O)O)c1I` (stereo unspecified) here?
A: The Ki was greater than 10 µM.

Q: Which Ki does the source give for `COc1cccc(CC2NC(=O)CN(Cc3ccccc3)C2=O)c1` (stereo unspecified) here?
A: Its Ki is greater than 10 µM.

Q: For `COc1cccc(CC2NC(=O)CN(C)C2=O)c1I` (stereo unspecified), which Ki is on record?
A: The Ki was greater than 10 µM.

Q: With `COC(=O)C(Cc1cccc(OC)c1I)NC(=O)CN(C)Cc1ccccc1` (stereo unspecified) as the compound, how does the Ki read?
A: Its Ki is greater than 10 µM.

Q: Which Ki does the source give for `COC(=O)C(Cc1cccc(OC)c1I)NC(=O)CNCc1ccccc1` (stereo unspecified) here?
A: The Ki was greater than 10 µM.

Q: For `COc1cccc(CC(NC(=O)CNCc2ccccc2)C(=O)OC(C)C)c1I` (stereo unspecified), which Ki is on record?
A: The Ki was greater than 10 µM.

Q: With `COc1cccc(CC2NC(=O)CN(CCCc3ccccc3)C2=O)c1I` (stereo unspecified) as the compound, how does the Ki read?
A: The Ki was greater than 10 µM.

Q: For `COC(=O)C(Cc1cccc(OC)c1I)NC(=O)CN(Cc1ccccc1)C(C)=O` (stereo unspecified), which Ki is on record?
A: The Ki was greater than 10 µM.

Test system: not listed separately
Test: Metabolic stability in human plasma assessed as half life at 100 uM measured upto 24 hrs by LC-MS/MS analysis
Type: ADME, cell-free
Settings: 24 h, 100 µM

Q: With `COC(=O)C(Cc1cccc(OC)c1I)NC(=O)CNCc1ccccc1` (stereo unspecified) as the compound, how does the t1/2 read?
A: Its t1/2 is 2.1762 h.

Test system: not listed separately
Test: Plasma protein binding in human assessed as bound fraction at 1 uM by LC-MS/MS analysis
Type: ADME, cell-free
Settings: not given

Q: For `COC(=O)C(Cc1cccc(OC)c1I)NC(=O)CNCc1ccccc1` (stereo unspecified), which PPB is on record?
A: The PPB was 90.8%.

Test system: not listed separately
Test: Metabolic stability in Sprague-Dawley rat plasma assessed as half life at 100 uM measured upto 24 hrs by LC-MS/MS analysis
Type: ADME, cell-free
Settings: not given

Q: With `COC(=O)C(Cc1cccc(OC)c1I)NC(=O)CNCc1ccccc1` (stereo unspecified) as the compound, how does the half-life at 100 µM read?
A: The half-life at 100 µM was less than 1 min.

Test system: not listed separately
Test: Plasma protein binding in dog assessed as bound fraction at 1 uM by LC-MS/MS analysis
Type: ADME, cell-free, Canis lupus familiaris
Settings: not given

Q: For `COC(=O)C(Cc1cccc(OC)c1I)NC(=O)CNCc1ccccc1` (stereo unspecified), which PPB is on record?
A: Its PPB is 97.09%.

Test system: BEND3
Test: Apparent permeability coefficient of the compound across blood brain barrier in mouse BEND3 cells at 10 ug/ml measured upto 120 mins by LC-MS/MS analysis
Type: functional, cell-based
Settings: dose 10.0 µg/ml

Q: Which Pe does the source give for `COC(=O)C(Cc1cccc(OC)c1I)NC(=O)CNCc1ccccc1` (stereo unspecified) here?
A: Its Pe is 8.75 10^-3cm/min.

Test system: not listed separately
Test: Metabolic stability in Beagle dog plasma assessed as half life at 100 uM measured upto 24 hrs by LC-MS/MS analysis
Type: ADME, cell-free, Canis lupus familiaris
Settings: 24 h, 100 µM

Q: For `COC(=O)C(Cc1cccc(OC)c1I)NC(=O)CNCc1ccccc1` (stereo unspecified), which t1/2 is on record?
A: Its t1/2 is 3.6808 h.

Target: Delta-type opioid receptor (Homo sapiens, UniProt P41143)
Sequence (P41143 whole entry): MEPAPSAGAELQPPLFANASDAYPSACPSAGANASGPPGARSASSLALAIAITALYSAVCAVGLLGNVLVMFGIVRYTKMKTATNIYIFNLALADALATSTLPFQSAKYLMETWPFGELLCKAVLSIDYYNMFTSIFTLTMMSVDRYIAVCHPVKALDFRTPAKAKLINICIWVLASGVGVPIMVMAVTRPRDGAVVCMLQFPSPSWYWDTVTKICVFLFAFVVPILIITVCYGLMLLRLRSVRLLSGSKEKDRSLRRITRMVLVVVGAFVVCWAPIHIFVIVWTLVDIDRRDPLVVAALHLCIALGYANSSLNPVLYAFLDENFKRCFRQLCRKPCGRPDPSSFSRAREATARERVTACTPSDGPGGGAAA
Test: Displacement of [3H]DADLE from human DOR expressed in CHO cell membranes assessed as inhibition constant incubated for 60 mins by microbeta 2 scintillation counting method
Design: species or system Cell membrane
Settings: not given

Q: Which Ki does the source give for `O=C1CN(Cc2ccccc2)C(=O)C(Cc2cccc(O)c2I)N1` (stereo unspecified) here?
A: Its Ki is greater than 10 µM.

Q: With `COc1cccc(CC2NC(=O)[C@H](CC(C)C)NC2=O)c1I` (stereo partly specified) as the compound, how does the Ki read?
A: The Ki was greater than 10 µM.

Q: For `COc1cccc(CC(NC(=O)CNCc2ccccc2)C(=O)O)c1I` (stereo unspecified), which Ki is on record?
A: Its Ki is greater than 10 µM.

Q: Which Ki does the source give for `COc1cccc(CC2NC(=O)CN(Cc3ccccc3)C2=O)c1` (stereo unspecified) here?
A: The Ki was greater than 10 µM.

Q: Which Ki does the source give for `COc1cccc(CC2NC(=O)CN(C)C2=O)c1I` (stereo unspecified) here?
A: The Ki was greater than 10 µM.

Q: For `COC(=O)C(Cc1cccc(OC)c1I)NC(=O)CN(C)Cc1ccccc1` (stereo unspecified), which Ki is on record?
A: Its Ki is greater than 10 µM.

Q: Which Ki does the source give for `COC(=O)C(Cc1cccc(OC)c1I)NC(=O)CNCc1ccccc1` (stereo unspecified) here?
A: Its Ki is greater than 10 µM.

Q: With `COc1cccc(CC(NC(=O)CNCc2ccccc2)C(=O)OC(C)C)c1I` (stereo unspecified) as the compound, how does the Ki read?
A: The Ki was greater than 10 µM.

Q: With `COc1cccc(CC2NC(=O)CN(CCCc3ccccc3)C2=O)c1I` (stereo unspecified) as the compound, how does the Ki read?
A: The Ki was greater than 10 µM.

Q: Which Ki does the source give for `COC(=O)C(Cc1cccc(OC)c1I)NC(=O)CN(Cc1ccccc1)C(C)=O` (stereo unspecified) here?
A: The Ki was greater than 10 µM.

Test system: not listed separately
Test: Metabolic stability in CD-1 mouse plasma assessed as half life at 100 uM measured upto 24 hrs by LC-MS/MS analysis
Type: ADME, cell-free
Settings: not given

Q: With `COC(=O)C(Cc1cccc(OC)c1I)NC(=O)CNCc1ccccc1` (stereo unspecified) as the compound, how does the half-life at 100 µM read?
A: Its half-life at 100 µM is less than 1 min.

Organism: Homo sapiens
Test: Selectivity ratio of Ki for displacement of [3H]DADLE from human DOR expressed in CHO cell membranes to Ki for displacement of [3H]U69593 from human KOR expressed in HEK cell membranes
Settings: not given

Q: With `COC(=O)C(Cc1cccc(OC)c1I)NC(=O)CN(C)Cc1ccccc1` (stereo unspecified) as the compound, how does the Ratio Ki read?
A: Its Ratio Ki is greater than 40.

Q: Which Ratio Ki does the source give for `COC(=O)C(Cc1cccc(OC)c1I)NC(=O)CNCc1ccccc1` (stereo unspecified) here?
A: Its Ratio Ki is greater than 36.

Q: For `COc1cccc(CC(NC(=O)CNCc2ccccc2)C(=O)OC(C)C)c1I` (stereo unspecified), which Ratio Ki is on record?
A: Its Ratio Ki is greater than 7.

Q: Which Ratio Ki does the source give for `COc1cccc(CC2NC(=O)CN(CCCc3ccccc3)C2=O)c1I` (stereo unspecified) here?
A: The Ratio Ki was greater than 1.4.

Target: Kappa-type opioid receptor (Homo sapiens, UniProt P41145)
Sequence (P41145 whole entry): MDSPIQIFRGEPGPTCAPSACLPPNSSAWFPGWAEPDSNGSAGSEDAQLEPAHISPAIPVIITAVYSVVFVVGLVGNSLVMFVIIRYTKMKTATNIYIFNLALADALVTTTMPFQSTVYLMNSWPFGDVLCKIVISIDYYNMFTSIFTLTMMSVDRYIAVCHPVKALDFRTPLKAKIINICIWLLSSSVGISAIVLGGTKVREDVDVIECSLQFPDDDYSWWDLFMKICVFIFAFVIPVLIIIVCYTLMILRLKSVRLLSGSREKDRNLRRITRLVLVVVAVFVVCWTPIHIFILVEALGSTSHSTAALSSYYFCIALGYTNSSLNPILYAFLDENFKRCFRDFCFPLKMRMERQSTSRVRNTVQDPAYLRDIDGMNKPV
Test: Displacement of [3H]U69593 from human KOR expressed in HEK cell membranes assessed as inhibition constant incubated for 60 mins by microbeta 2 scintillation counting method
Design: species or system Cell membrane
Settings: not given

Q: For `O=C1CN(Cc2ccccc2)C(=O)C(Cc2cccc(O)c2I)N1` (stereo unspecified), which Ki is on record?
A: Its Ki is greater than 10 µM.

Q: Which Ki does the source give for `COc1cccc(CC2NC(=O)[C@H](CC(C)C)NC2=O)c1I` (stereo partly specified) here?
A: The Ki was greater than 10 µM.

Q: For `COc1cccc(CC(NC(=O)CNCc2ccccc2)C(=O)O)c1I` (stereo unspecified), which Ki is on record?
A: Its Ki is greater than 10 µM.

Q: Which Ki does the source give for `COc1cccc(CC2NC(=O)CN(Cc3ccccc3)C2=O)c1` (stereo unspecified) here?
A: Its Ki is greater than 10 µM.

Q: Which Ki does the source give for `COc1cccc(CC2NC(=O)CN(C)C2=O)c1I` (stereo unspecified) here?
A: Its Ki is greater than 10 µM.

Q: For `COC(=O)C(Cc1cccc(OC)c1I)NC(=O)CN(C)Cc1ccccc1` (stereo unspecified), which Ki is on record?
A: Its Ki is 0.256 µM.

Q: Which Ki does the source give for `COC(=O)C(Cc1cccc(OC)c1I)NC(=O)CNCc1ccccc1` (stereo unspecified) here?
A: Its Ki is 0.277 µM.

Q: Which Ki does the source give for `COc1cccc(CC(NC(=O)CNCc2ccccc2)C(=O)OC(C)C)c1I` (stereo unspecified) here?
A: The Ki was 1.44 µM.

Q: With `COc1cccc(CC2NC(=O)CN(CCCc3ccccc3)C2=O)c1I` (stereo unspecified) as the compound, how does the Ki read?
A: The Ki was 7 µM.

Q: Which Ki does the source give for `COC(=O)C(Cc1cccc(OC)c1I)NC(=O)CN(Cc1ccccc1)C(C)=O` (stereo unspecified) here?
A: The Ki was greater than 10 µM.

Test system: not listed separately
Test: Metabolic stability in Sprague-Dawley rat liver microsomes assessed as intrinsic clearance at 100 uM measured upto 24 hrs in presence of NADPH by LC-MS/MS analysis
Type: ADME, Microsome
Settings: not given

Q: With `COC(=O)C(Cc1cccc(OC)c1I)NC(=O)CNCc1ccccc1` (stereo unspecified) as the compound, how does the Intrinsic clearance read?
A: The Intrinsic clearance was 1928 µL/min/mg.

Organism: Homo sapiens
Test: Selectivity ratio of Ki for displacement of [3H]DAMGO from human MOR expressed in CHO cell membranes to Ki for displacement of [3H]U69593 from human KOR expressed in HEK cell membranes
Settings: not given

Q: For `COC(=O)C(Cc1cccc(OC)c1I)NC(=O)CN(C)Cc1ccccc1` (stereo unspecified), which Ratio Ki is on record?
A: Its Ratio Ki is greater than 40.

Q: With `COC(=O)C(Cc1cccc(OC)c1I)NC(=O)CNCc1ccccc1` (stereo unspecified) as the compound, how does the Ratio Ki read?
A: Its Ratio Ki is greater than 36.

Q: With `COc1cccc(CC(NC(=O)CNCc2ccccc2)C(=O)OC(C)C)c1I` (stereo unspecified) as the compound, how does the Ratio Ki read?
A: Its Ratio Ki is greater than 7.

Q: Which Ratio Ki does the source give for `COc1cccc(CC2NC(=O)CN(CCCc3ccccc3)C2=O)c1I` (stereo unspecified) here?
A: The Ratio Ki was greater than 1.4.
